Measurements taken from patent US5420145A, “Carboxylic acid derivative” (Shudo; Koichi, priority 1993, dated 1995).

tested on: promyelocytic leukemia cell-line HL-60; assay: Differentiation Inducing Activity on HL-60 (differentiation to granulocyte; morphological observation of nucleus and NBT reduction); type: cell-based; details: Homo sapiens, HL-60, read-out: ED50 (concentration which induced differentiation in the half of the cells)
Procedure: The activities of the compounds of the above-described examples on differentiation were evaluated using promyelocytic leukemia cell-line HL-60 according to the method described in Japanese Patent Unexamined Publication No. 61-76440. The differentiation to granulocyte was evaluated by morphological observation of nucleus and measurement of ability to reduce nitroblue-tetrazolium (NBT). These are well known procedures providing adequate results in the evaluation of the cell differentiation-inducing activity of retinoids. Retinoic acid was used as the reference compound, and the concentrations which induced differentiation in the half of the cells were calculated.

Row | SMILES | EC50 [nM]
1 | CC1=C(/C=C/C(C)=C/C=C/C(C)=C/C(=O)O)C(C)(C)CCC1 [Retinoic Acid, Retinoic acid, reference compound] | 2.4

same assay, conditions: Homo sapiens; HL-60 cells; differentiation to granulocyte; nucleus morphology and nitroblue-tetrazolium (NBT) reduction; read-out: ED50 (concentration which induced differentiation in the half of the cells)

Row | SMILES | EC50 [nM]
2 | CC1(C)CCC(C)(C)c2cc(NC(=O)c3ccc(C(=O)O)nc3)ccc21 [Example 1, 5-(5,6,7,8-Tetrahydro-5,5,8,8-tetramethyl-2-naphthalenyl-carbamoyl)pyridine-2-carboxylic acid] | 40
3 | CC(C)c1ccc(NC(=O)c2ccc(C(=O)O)cn2)cc1C(C)C [Example 5, 6-(3,4-Di-isopropylphenylcarbamoyl)pyridine-3-carboxylic acid] | 25
4 | CC1(C)CCC(C)(C)c2cc(NC(=O)c3ccc(C(=O)O)cc3O)ccc21 [Example 3, 3-Hydroxy-4-(5,6,7,8-tetrahydro-5,5,8,8-tetramethyl-2-naphthalenylcarbamoyl)benzoic acid] | 0.41
5 | CC1(C)CCC(C)(C)c2cc(NC(=O)c3ccc(C(=O)O)cn3)ccc21 [Example 2, 6-(5,6,7,8-Tetrahydro-5,5,8,8-tetramethyl-2naphthalenylcarbamoyl) pyridine-3-carboxylic acid] | 0.22
6 | CC1(C)CCC(C)(C)c2cc(C(=O)Nc3ccc(C(=O)O)cc3O)ccc21 [Example 4, 3-Hydroxy-4-(5,6,7,8-tetrahydro-5,5,8,8-tetramethyl-2-naphthalenylcarboxamide)benzoic acid] | 6.5
